Where two headings read alike, the source gives them in different places.
Legend:
C. parvum CDPK1 = C. parvum CDPK1 (Cryptosporidium parvum, UniProt A3FQ16); assay: CpCDPK1 enzyme inhibition; format: biochemical
Text: […]. […] All other methods are specified in S1 File.

Hepatocyte stability [1] = settings: rat
CYP2C19 = CYP2C19 (Homo sapiens, UniProt P33261); assay: CYP reaction phenotyping, recombinant supersomes
Salmonella bacteria = assay: microAmes (μAmes) test
CYP3A12 = assay: CYP Induction Assay in dog hepatocytes; settings: 30 and 100 μM, 48 h
[2] = Liver microsome stability; settings: monkey, pooled liver microsomes
CYP1A2 [3] = target: T1, CYP1A2 (Homo sapiens, UniProt P05177); assay: in vitro; settings: recombinant CYP1A2 supersomes
T1 sequence (P05177 1-516): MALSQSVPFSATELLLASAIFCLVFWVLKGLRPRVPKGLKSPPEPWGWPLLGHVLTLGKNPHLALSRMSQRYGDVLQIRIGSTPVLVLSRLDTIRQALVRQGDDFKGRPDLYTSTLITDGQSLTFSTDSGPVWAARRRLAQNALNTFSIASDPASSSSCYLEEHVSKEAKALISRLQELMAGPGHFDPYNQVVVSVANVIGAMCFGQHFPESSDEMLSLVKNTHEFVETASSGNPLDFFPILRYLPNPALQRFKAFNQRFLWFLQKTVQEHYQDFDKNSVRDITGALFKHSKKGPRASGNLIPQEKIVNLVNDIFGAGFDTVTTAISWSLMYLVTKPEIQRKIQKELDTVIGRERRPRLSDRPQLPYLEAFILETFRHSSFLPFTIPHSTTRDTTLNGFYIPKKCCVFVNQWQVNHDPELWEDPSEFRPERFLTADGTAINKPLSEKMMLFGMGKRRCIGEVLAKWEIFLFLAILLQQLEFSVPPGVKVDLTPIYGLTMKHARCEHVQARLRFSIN

[4] = Plasma protein binding, equilibrium dialysis; settings: rat
CYP1A2 [5] = assay: CYP Induction Assay in dog hepatocytes; settings: 30 and 100 μM, 48 h
CYP1A2 [6] = target: T1, CYP1A2; assay: CYP reaction phenotyping, recombinant supersomes
A3 = target: T2, A3 (Homo sapiens, UniProt P0DMS8); assay: Cerep binding assay; set-up: Cerep (Eurofins, France); settings: agonist radioligand, mean, read-out: % inhibition of control specific binding
T2 sequence (P0DMS8 1-318): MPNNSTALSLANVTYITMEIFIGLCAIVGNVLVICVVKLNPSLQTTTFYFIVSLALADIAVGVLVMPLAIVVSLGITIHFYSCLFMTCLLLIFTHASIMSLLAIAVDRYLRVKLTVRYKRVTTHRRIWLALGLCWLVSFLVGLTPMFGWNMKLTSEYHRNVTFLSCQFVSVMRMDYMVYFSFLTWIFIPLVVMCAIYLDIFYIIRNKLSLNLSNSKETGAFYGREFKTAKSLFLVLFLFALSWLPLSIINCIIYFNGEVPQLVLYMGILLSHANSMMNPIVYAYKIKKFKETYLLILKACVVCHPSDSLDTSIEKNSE

PKD3 = PKD3 (Homo sapiens, UniProt O94806); assay: Kinome profiling; format: biochemical
[7] = tested on: C. parvum Bunch Grass Farms isolate; assay: Calibr high-content imaging Cryptosporidium panel; format: cell-based, Cryptosporidium parvum; settings: Cryptosporidium parvum
CYP2C9 [8] = target: T3, CYP2C9 (Homo sapiens, UniProt P11712); assay: biochemical
CYP2C9 [9] = target: T3, CYP2C9; assay: in vitro; settings: recombinant CYP2C9 supersomes
Hepatocyte stability [10] = settings: mouse
CYP3A4 = CYP3A4 (Homo sapiens, UniProt P08684); assay: in vitro; settings: recombinant CYP3A4 supersomes
[11] = Liver microsome stability; settings: rat, pooled liver microsomes
[12] = liver microsomes and primary hepatocytes

T3 sequence (P11712 whole entry): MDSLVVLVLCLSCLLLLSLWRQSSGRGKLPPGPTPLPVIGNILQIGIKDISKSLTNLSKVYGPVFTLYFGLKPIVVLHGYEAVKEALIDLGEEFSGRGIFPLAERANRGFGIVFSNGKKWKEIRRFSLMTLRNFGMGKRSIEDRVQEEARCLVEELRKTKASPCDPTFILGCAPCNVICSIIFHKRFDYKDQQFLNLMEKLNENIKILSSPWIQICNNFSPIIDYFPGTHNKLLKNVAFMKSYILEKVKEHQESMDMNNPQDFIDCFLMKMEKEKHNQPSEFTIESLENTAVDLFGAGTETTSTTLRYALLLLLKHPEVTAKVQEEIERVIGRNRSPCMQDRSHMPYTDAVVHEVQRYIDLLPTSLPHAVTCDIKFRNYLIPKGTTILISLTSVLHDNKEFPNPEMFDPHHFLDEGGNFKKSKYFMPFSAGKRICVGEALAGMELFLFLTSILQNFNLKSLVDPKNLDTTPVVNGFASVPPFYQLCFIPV
Sequence of CYP2C19 (P33261 whole entry): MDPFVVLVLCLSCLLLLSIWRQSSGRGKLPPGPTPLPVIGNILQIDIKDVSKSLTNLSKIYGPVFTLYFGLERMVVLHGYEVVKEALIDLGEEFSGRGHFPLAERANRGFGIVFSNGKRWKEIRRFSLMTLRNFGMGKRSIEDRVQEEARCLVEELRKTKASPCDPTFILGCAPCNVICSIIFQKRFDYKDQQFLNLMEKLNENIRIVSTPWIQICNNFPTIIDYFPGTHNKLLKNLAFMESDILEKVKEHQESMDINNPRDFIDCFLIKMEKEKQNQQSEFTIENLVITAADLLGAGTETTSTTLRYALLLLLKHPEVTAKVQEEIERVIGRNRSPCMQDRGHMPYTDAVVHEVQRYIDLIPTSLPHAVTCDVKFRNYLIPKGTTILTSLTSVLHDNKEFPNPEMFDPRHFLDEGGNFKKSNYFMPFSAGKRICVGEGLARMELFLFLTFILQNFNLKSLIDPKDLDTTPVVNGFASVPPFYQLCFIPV
Sequence of C. parvum CDPK1 (A3FQ16 1-538): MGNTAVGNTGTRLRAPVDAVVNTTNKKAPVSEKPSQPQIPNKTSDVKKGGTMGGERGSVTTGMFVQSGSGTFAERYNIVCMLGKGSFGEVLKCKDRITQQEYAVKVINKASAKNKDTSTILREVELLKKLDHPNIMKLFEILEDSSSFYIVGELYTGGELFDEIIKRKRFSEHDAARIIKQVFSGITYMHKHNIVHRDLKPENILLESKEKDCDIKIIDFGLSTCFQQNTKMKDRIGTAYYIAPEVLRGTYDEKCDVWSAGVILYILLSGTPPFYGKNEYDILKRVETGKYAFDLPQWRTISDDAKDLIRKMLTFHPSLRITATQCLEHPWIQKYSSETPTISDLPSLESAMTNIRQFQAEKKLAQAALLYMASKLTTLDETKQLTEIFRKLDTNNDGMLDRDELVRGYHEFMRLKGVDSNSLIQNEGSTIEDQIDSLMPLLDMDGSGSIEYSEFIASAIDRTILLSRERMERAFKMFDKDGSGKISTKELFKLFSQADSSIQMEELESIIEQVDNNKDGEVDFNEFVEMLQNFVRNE
Sequence of CYP3A4 (P08684 whole entry): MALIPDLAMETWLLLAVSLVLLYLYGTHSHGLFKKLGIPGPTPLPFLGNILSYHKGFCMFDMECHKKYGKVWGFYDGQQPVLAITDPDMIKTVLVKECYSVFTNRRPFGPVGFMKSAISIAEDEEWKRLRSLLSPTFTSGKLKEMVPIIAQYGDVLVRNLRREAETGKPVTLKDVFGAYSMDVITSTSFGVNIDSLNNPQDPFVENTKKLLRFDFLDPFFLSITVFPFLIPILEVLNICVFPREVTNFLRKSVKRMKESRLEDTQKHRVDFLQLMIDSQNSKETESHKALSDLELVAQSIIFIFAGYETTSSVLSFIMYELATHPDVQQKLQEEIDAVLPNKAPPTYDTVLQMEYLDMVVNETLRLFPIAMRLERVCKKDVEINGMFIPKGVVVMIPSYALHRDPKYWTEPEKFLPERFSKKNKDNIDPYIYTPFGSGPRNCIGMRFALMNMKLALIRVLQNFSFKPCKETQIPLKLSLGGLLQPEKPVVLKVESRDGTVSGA
Sequence of PKD3 (O94806 whole entry): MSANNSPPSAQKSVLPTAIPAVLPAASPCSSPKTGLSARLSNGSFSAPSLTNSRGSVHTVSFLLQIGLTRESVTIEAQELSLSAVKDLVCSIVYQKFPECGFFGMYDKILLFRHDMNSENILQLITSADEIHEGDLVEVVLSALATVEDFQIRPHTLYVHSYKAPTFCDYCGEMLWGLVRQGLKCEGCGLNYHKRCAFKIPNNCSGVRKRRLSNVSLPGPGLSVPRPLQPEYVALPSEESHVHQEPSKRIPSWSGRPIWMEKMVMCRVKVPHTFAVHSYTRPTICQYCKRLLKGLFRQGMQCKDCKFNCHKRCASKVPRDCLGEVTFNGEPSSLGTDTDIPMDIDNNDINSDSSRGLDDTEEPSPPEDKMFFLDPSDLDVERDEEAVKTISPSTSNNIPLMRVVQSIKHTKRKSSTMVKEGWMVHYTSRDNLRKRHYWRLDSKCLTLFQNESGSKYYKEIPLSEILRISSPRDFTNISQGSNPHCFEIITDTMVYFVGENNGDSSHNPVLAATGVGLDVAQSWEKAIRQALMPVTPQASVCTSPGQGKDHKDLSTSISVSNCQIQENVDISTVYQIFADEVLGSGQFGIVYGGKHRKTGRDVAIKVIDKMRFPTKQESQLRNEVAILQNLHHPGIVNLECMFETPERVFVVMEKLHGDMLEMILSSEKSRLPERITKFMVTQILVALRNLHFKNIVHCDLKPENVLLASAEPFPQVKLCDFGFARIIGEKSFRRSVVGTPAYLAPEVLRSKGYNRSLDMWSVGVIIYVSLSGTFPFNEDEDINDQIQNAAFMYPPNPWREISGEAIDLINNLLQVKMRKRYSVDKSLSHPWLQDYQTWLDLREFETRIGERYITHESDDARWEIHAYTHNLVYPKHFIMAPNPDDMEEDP

CC1(C)Cn2nc(-c3ccc4cc(OC5CC5)ccc4c3)c(C(N)=O)c2NC1O (stereo not drawn) [M2]
IC50 (C. parvum CDPK1): 0.0925 µM
fold reduction in potency compared to BKI-1708 (C. parvum CDPK1): 132 fold
LM:hepatocyte CLint_scaled ratio (Hepatocyte stability [1]; [12]): <0.7
CLint scaled (Hepatocyte stability [1]; primary hepatocytes): 3.8 L/h/kg
half-life (Hepatocyte stability [1]; primary hepatocytes): 1.75 h
hepatocyte CLint (Hepatocyte stability [1]; primary hepatocytes): 13.2 µL/min/1e6 cells
% contribution (CYP2C19): 0.0%
CLint (CYP2C19): <0.029 µL/min/pmol
μAmes test result (Salmonella bacteria): negative
induction of CYP3A12 (CYP3A12): not found to be inducers
CLint scaled [2]: 3.3 L/h/kg
half-life [2]: 0.95 h
microsomal CLint [2]: 48.6 µL/min/mg
CLint scaled (CYP1A2 [3]): 0.167 L/h/kg
half-life (CYP1A2 [3]): 1 h
fraction unbound [4]: 0.06
induction of CYP1A2 (CYP1A2 [5]): strong inducers
% contribution (CYP1A2 [6]): 47.0%
CLint (CYP1A2 [6]): 0.115 µL/min/pmol
inhibition at 10 µM (A3): 72.6%
IC50 (PKD3): 0.23 µM
EC50 [7]: 0.32 µM
EC90 [7]: 0.77 µM
EC50 ([7]; read-out: Bunch Grass Farm C. parvum Count EC50, Crypto Panel 3 Replicate 1): 0.388 µM
EC50 ([7]; read-out: Bunch Grass Farm C. parvum Count EC50, Crypto Panel 3 Replicate 2): 0.247 µM
EC90 ([7]; read-out: Bunch Grass Farm C. parvum Count EC90, Replicate 1): 0.966 µM
EC90 ([7]; read-out: Bunch Grass Farm C. parvum Count EC90, Replicate 2): 0.569 µM
IC50 (CYP2C9 [8]): > 40 µM
CLint scaled (CYP2C9 [9]): < 0.107 L/h/kg
half-life (CYP2C9 [9]): > 4 h
LM:hepatocyte CLint_scaled ratio (Hepatocyte stability [10]; [12]): 1.7
CLint scaled (Hepatocyte stability [10]; primary hepatocytes): 2.7 L/h/kg
half-life (Hepatocyte stability [10]; primary hepatocytes): 4.37 h
hepatocyte CLint (Hepatocyte stability [10]; primary hepatocytes): 5.3 µL/min/1e6 cells
CLint scaled (CYP3A4): 0.301 L/h/kg
half-life (CYP3A4): 0.817 h
CLint scaled [11]: < 2.5 L/h/kg
half-life [11]: > 2 h
microsomal CLint [11]: < 23.1 µL/min/mg

From PMC12310023 (PLOS Neglected Tropical Diseases, 2025)
